Measured values from patent US12193437B2, “Pesticidal compositions” (Monsanto Technology LLC, priority 2016, dated 2025).

Test: Solubility of dicamba and its sodium salt

With `COc1c(Cl)ccc(Cl)c1C(=O)O` [dicamba, 3,6-dichloro-2-methoxybenzoic acid] the “amount dissolved in mixtures of a water-miscible glycol and water” value (glycol 30% or higher by weight of the mixture) was “about 45 % by weight of the solution”.
With `COc1c(Cl)ccc(Cl)c1C(=O)[O-].[Na+]` [sodium salt of dicamba, sodium dicamba] the aqueous solubility (fully neutralized (molar equivalence of 1) sodium salt, water) was “about 35 wt. % acid equivalent”.
